In patent US4997843A, “2,4-disubstituted derivatives of tetrahydrofuran useful for the treatment of PAF mediated illnesses” (J Uriach & Cia S.A., priority 1987, dated 1991):
Like-named read-outs stand apart in the source and are kept apart here.

Key:
[1] = test system: platelet aggregation induced by PAF; test: Test 1: inhibition of platelet aggregation induced by PAF in vitro (rabbit platelet rich plasma, Born nephelometric technique); format: cell-based, male New Zealand albino rabbits; details: PAF C18 16 nM final, read-out: IC50 (concentration of the drug needed to inhibit the platelet aggregation in a 50%)
Protocol: TEST 1: INHIBITION OF PLATELET AGGREGATION INDUCED BY PAF
The platelet rich plasma (PRP) is prepared by blood centrifugation at 250 xg for 10 min. at 4° C. and it is diluted with platelet poor plasma (PPP) obtained by additional centrifugation at 300 xg for 10 min. The amount of platelets is adjusted to […].

[2] = test system: hypotension induced by PAF; test: Test 2: inhibition of the hypotensive effect induced by PAF in normotense rats; format: in vivo, male Sprague Dawley rats; details: anesthetized rats, compound via femoral vein 3 min before PAF (0.5 mg/Kg, i.v.); for ED50: Rattus norvegicus, iv, read-out: IC50 (inhibition of the hypotension induced by PAF)
Protocol: TEST 2--INHIBITION OF THE HYPOTENSIVE EFFECT INDUCED BY PAF IN NORMOTENSE RATS
Male Sprague Dawley rats, of 180-220 g of weight, anesthetized with sodium pentobarbital (50 mg/Kg, i.p. 1 mL/100 g) have been used. In order to measure the average arterial pressure a polyethylene catheter was introduced into the carotid artery. The arterial pressure was recorded with the help of a transducer connected with a R611 Beckman polygraph. The tested compounds were administrated through the femoral vein 3 min. before the injection of PAF (0.5 mg/Kg, i.v.).

[3] = Oryctolagus cuniculus, Platelet

Row | IC50 [1, 3] | SMILES | IC50 [1] | ED50 [2] | IC50 (inhibition of the hypotension induced by PAF) [2]
1 |  | CCCCCCCCCCCCCCCCOCC1COC(COC(=O)N(Cc2cccc[n+]2CC)C(C)=O)C1 (racemic) [Compound 13, (±)-cis, trans-N-ethyl-2-[N-acetyl-[[[(4-hexadecyloxymethyltetrahydrofuran-2-yl)methoxy]carbonyl]amino]methyl]pyridinium iodide] | 22 nM | 0.035 mg/kg | 
2 | 3800 nM | CCCCCCCCCCCCCCCCOCC1COC(COC(=O)NCc2cccc[n+]2CC)C1 (racemic) [Compound 10, (±)-cis, trans-N-ethyl-2-[[[(4-hexadecyloxymethyltetrahydrofuran-2-yl)methoxy]carbonyl]amino]methylpyridinium iodide] |  | 6.6 mg/kg | 
3 | 48 nM | CCCCCCCCCCCCCCCCOCC1COC(COC(=O)N(Cc2cccc[n+]2CC)C(=O)OCC)C1 (racemic) [Compound 15, (±)-cis, trans-N-ethyl-[N-ethoxycarbonyl-[[[(4-hexadecyloxymethyltetrahydrofuran-2-yl)methoxy]carbonyl]amino]methyl]pyridinium iodide] |  | 0.035 mg/kg | 
4 | 900 nM | CCCCCCCCCCCCCCOCC1COC(COCCCCCCC[n+]2ccsc2)C1 (racemic) [Compound 2, (±)-cis, trans-3-[7-(4-tetradecyloxymethyltetrahydrofuran-2-yl)methoxy]heptyl]thiazolium 4-methylbenzenesulfonate] |  | 1.4 mg/kg | 
5 | 100 nM | CCCCCCCCCCCCCCCCOCC1COC(COC(=O)N(Cc2cccc[n+]2C)C(C)=O)C1 (racemic) [Compound 12, (±)-cis, trans-N-methyl-2-[N-acetyl-[[[(4-hexadecyloxymethyltetrahydrofuran-2-yl)methoxy]carbonyl]amino]methyl]pyridinium iodide] |  | 0.23 mg/kg | 
6 | 27 nM | CCCCCCCCCCCCCCCCCNC(=O)OCC1COC(COC(=O)N(Cc2cccc[n+]2CC)C(C)=O)C1 (racemic) [Compound 53, (±)-cis, trans-N-ethyl-2-[N-acetyl-[[[(4-heptadecylaminocarbonyloxymethyltetrahydrofuran-2-yl)methoxy]carbonyl]amino]methyl]pyridinium iodide] |  | 0.042 mg/kg | 
7 | 2500 nM | CCCCCCCCCCCCOCC1COC(COCCCCCCC[n+]2ccsc2)C1 (racemic) [Compound 1, (±)-cis, trans-3-[7-[(4-dodecyloxymethyltetrahydrofuran-2-yl)methoxy]heptyl]thiazolium 4-methylbenzenesulphonate] |  | 3.7 mg/kg | 
8 | 1500 nM | CCCCCCCCCCCCCCCCCCOCC1CC(COC(=O)CCCCC[n+]2ccsc2)CO1 (racemic) [Compound 64, (±)-cis, trans-3-[6-[(2-octadecyloxymethyltetrahydrofuran-4-yl)methoxy]6-oxohexyl]thiazolium 4-methylbenzenesulfonate] |  | 1.1 mg/kg | 
9 |  | CCCCCCCCCCCCCCOC[C@H]1CO[C@@H](COC(=O)N(Cc2cccc[n+]2CC)C(C)=O)C1.[Cl-] (racemic) [Compound 25, (±)-cis, trans-N-ethyl-2-[N-acetyl-[[[(4-tetradecyloxymethyltetrahydrofuran-2-yl)methoxy]carbonyl]amino]-methyl]pyridinium chloride] | 95 nM |  | 0.081 mg/Kg, i.v.
10 | 2000 nM | CCCCCCCCCCCCCCCCCCOCC1CC(COCCCCCCC[n+]2ccsc2)CO1 (racemic) [Compound 61, (±)-cis, trans-3-[7-[(2-octadecyloxymethyltetrahydrofuran-4-yl)methoxy]heptyl]thiazolium chloride] |  | 2.1 mg/kg | 
11 | 1600 nM | CCCCCCCCCCCCCCCCCCOCC1CC(COC(=O)NCc2cccc[n+]2C)CO1 (racemic) [Compound 66, (±)-cis, trans-N-methyl-2-[[[[(2-octadecyloxymethyl-tetrahydrofuran-4-yl)methoxy]carbonyl]amino]methyl]pyridinium iodide] |  | 5 mg/kg | 
